ChEMBL document CHEMBL4265968, “Efficient analoging around ethionamide to explore thioamides bioactivation pathways triggered by boosters in Mycobacterium tuberculosis” (Eur J Med Chem, 2018)
≈ marks a conversion by molar mass, not a printed value.

Assays:
[1] = system: Mycobacterium tuberculosis; assay: Antimycobacterial activity against GFP expressing Mycobacterium tuberculosis H37Rv after 7 days in presence of EthR inhibitor BDM41906 by fluorescence assay; assay type: functional; conditions: 168 h
[2] = Electrochemical behavior of the compound assessed as redox potential corrected toward normal hydrogen electrode at 10^-3 M by cyclic voltammetry; assay type: physicochemical; conditions: 1000 µM
[3] = system: Mycobacterium tuberculosis; assay: Antimycobacterial activity against GFP expressing Mycobacterium tuberculosis H37Rv after 7 days in presence of EthR2 inhibitor SMARt-420 by fluorescence assay; assay type: functional; conditions: 168 h
[4] = system: Mycobacterium tuberculosis; assay: Ratio of MIC50 for GFP expressing Mycobacterium tuberculosis H37Rv in absence of EthR2 inhibitor SMARt-420 to MIC50 for GFP expressing Mycobacterium tuberculosis H37Rv in presence of EthR2 inhibitor SMARt-420; assay type: functional
[5] = system: Mycobacterium tuberculosis; assay: Ratio of MIC50 for GFP expressing Mycobacterium tuberculosis H37Rv in absence of EthR inhibitor BDM41906 to MIC50 for GFP expressing Mycobacterium tuberculosis H37Rv in presence of EthR inhibitor BDM41906; assay type: functional
[6] = system: Mycobacterium tuberculosis; assay: Antimycobacterial activity against GFP expressing Mycobacterium tuberculosis H37Rv after 7 days by fluorescence assay; assay type: functional; conditions: 168 h

Compound | MIC50 [1] [µM] | Activity [2] [V] | MIC50 [3] [µM] | Ratio [4] | Ratio [5] | MIC50 [6] [µM]
NC(=S)c1ccnc(CC(F)(F)F)c1 | 10 | 1.55 | 1.5 | >20 | >3 | > 30
NC(=S)c1ccnc(Cc2ccccc2)c1 | 0.1 |  | 0.1 | 11 | 11 | 1.1 (≈ 0.251 µg/mL)
CCC(C)c1cc(C(N)=S)ccn1 (centres undefined) | 0.2 | 1.48 | 0.2 | 150 | 150 | 30 (≈ 5.83 µg/mL)
CCCCc1cc(C(N)=O)ccn1 | > 30 |  | > 30 |  |  | > 30
NC(=S)c1ccnc(C2CC2)c1 | 1 | 1.4 | 0.5 | 13 | 7 | 6.6 (≈ 1.18 µg/mL)
NC(=S)c1ccnc(Cc2ccc(F)cc2)c1 | 0.2 |  | 0.1 | 10 | 5 | 1 (≈ 0.246 µg/mL)
CC(C)CCc1cc(C(N)=S)ccn1 | 0.1 | 1.63 | 0.1 | 52 | 52 | 6.6 (≈ 1.37 µg/mL)
CCOC(=O)CCc1cc(C(N)=S)ccn1 | 3.8 |  | 1.3 | >23 | >8 | > 30
N#Cc1cccc(Cc2cc(C(N)=S)ccn2)c1 | 0.1 |  | 0.1 | 5 | 5 | 0.5 (≈ 0.127 µg/mL)
CCc1cc(/C(N)=[S+]/[O-])ccn1 | 0.4 |  | 0.3 | 33 | 25 | 10 (≈ 1.82 µg/mL)
NC(=S)c1ccnc(C2(C(F)(F)F)CC2)c1 | 10 | 1.65 | 10 | >3 | >3 | > 30
NC(=S)c1ccnc(CC2CCCCC2)c1 | 0.6 | 1.62 | 0.7 | >43 | >50 | > 30
COc1ccc(Cc2cc(C(N)=S)ccn2)cc1 | 0.3 |  | 0.2 | 12 | 8 | 2.4 (≈ 0.62 µg/mL)
CC(C)c1cc(C(N)=S)ccn1 | 0.1 | 1.62 | 0.2 | 105 | 210 | 21 (≈ 3.79 µg/mL)
CC(c1ccccc1)c1cc(C(N)=S)ccn1 (centres undefined) | 0.6 |  | 0.7 | >43 | >50 | > 30
NC(=S)c1ccnc(Cc2cccc(F)c2)c1 | 0.1 |  | 0.1 | 6 | 6 | 0.6 (≈ 0.148 µg/mL)
CCCCc1cc(C(N)=S)ccn1 | 0.6 | 1.39 | 0.4 | 15 | 10 | 5.8 (≈ 1.13 µg/mL)
CC(C)Cc1cc(C(N)=S)ccn1 | 9.1 | 1.57 | 3.8 | >8 | >3 | > 30
CCc1cc(C(N)=S)ccn1 [ETHIONAMIDE] | 2 | 1.46 | 0.9 | 21 | 10 | 19 (≈ 3.16 µg/mL)
CCCc1cc(C(N)=S)ccn1 [PROTIONAMIDE] | 0.9 | 1.43 | 0.5 | 26 | 14 | 13 (≈ 2.34 µg/mL)
